Data: the supplement of paper PMC10307832

Key:
Test in all cases: relative viability (nuclei count vs DMSO), 5 days (fraction); higher = more cells survive
Kobe2602 + Linsitinib = compound: C1=CC(=CC=C1NC(=S)NNC2=C(C=C(C=C2[N+](=O)[O-])C(F)(F)F)[N+](=O)[O-])F [Kobe2602] + C[C@]1(O)C[C@@H](c2nc(-c3ccc4ccc(-c5ccccc5)nc4c3)c3c(N)nccn32)C1 [Linsitinib] (partner 1 µM)
Method in brief: (§1)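 Values are medians from duplicate plates. Each reflects relative viability, defined as the nuclei count of treated wells over that of vehicle wells. Lung cancer cell lines in 1536-well plates were pin-tool dosed one day after seeding with one drug alone or with a fixed anchor-drug dose plus five library-drug doses (not always all listed) in √10 steps, then fixed, stained and imaged at 4× after 5 days.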

[1] = compound: COc1cc2nccc(Oc3ccc(NC(=O)C4(C(=O)Nc5ccc(F)cc5)CC4)cc3)c2cc1OC [Cabozantinib] + Nc1ncn([C@H]2C[C@H](O)[C@@H](CO)O2)c(=O)n1 [Decitabine] (partner 2 µM)
Method in brief: as §1

Cabozantinib + Foretinib = compound: COc1cc2nccc(Oc3ccc(NC(=O)C4(C(=O)Nc5ccc(F)cc5)CC4)cc3)c2cc1OC [Cabozantinib] + COc1cc2c(Oc3ccc(NC(=O)C4(C(=O)Nc5ccc(F)cc5)CC4)cc3F)ccnc2cc1OCCCN1CCOCC1 [Foretinib] (partner 0.25 µM)
Method in brief: as §1

Zosuquidar + Alpelisib = compound: O[C@@H](COc1cccc2ncccc12)CN1CCN([C@@H]2c3ccccc3[C@@H]3[C@H](c4ccccc42)C3(F)F)CC1 [Zosuquidar] + Cc1nc(NC(=O)N2CCC[C@H]2C(N)=O)sc1-c1ccnc(C(C)(C)C(F)(F)F)c1 [Alpelisib] (partner 2 µM)
Method in brief: as §1

Row | Cell Line | relative viability (Kobe2602 + Linsitinib; first compound 0.2 µM) | relative viability (Kobe2602 + Linsitinib; first compound 0.6325 µM) | relative viability (Kobe2602 + Linsitinib; first compound 2 µM) | relative viability (Kobe2602 + Linsitinib; first compound 6.325 µM) | relative viability (Kobe2602 + Linsitinib; first compound 20 µM) | relative viability ([1]; first compound 0.02 µM) | relative viability ([1]; first compound 0.06325 µM) | relative viability ([1]; first compound 0.2 µM) | relative viability ([1]; first compound 0.6325 µM) | relative viability ([1]; first compound 2 µM) | relative viability (Cabozantinib + Foretinib; first compound 0.02 µM) | relative viability (Cabozantinib + Foretinib; first compound 0.06325 µM) | relative viability (Cabozantinib + Foretinib; first compound 0.6325 µM) | relative viability (Cabozantinib + Foretinib; first compound 2 µM) | relative viability (Zosuquidar + Alpelisib; first compound 0.01 µM) | relative viability (Zosuquidar + Alpelisib; first compound 0.03162 µM) | relative viability (Zosuquidar + Alpelisib; first compound 0.1 µM) | relative viability (Zosuquidar + Alpelisib; first compound 0.3162 µM) | relative viability (Zosuquidar + Alpelisib; first compound 1 µM) | relative viability (Cabozantinib + Foretinib; first compound 0.2 µM)
1 | LOU-NH91 | 0.997 | 0.983 | 1 | 0.922 | 0.965 | 0.798 | 0.825 | 0.654 | 0.791 | 0.802 | 0.89 | 0.997 | 0.966 | 0.992 | 0.702 | 0.717 | 0.6 | 0.718 | 0.725 | 
2 | LC-2-ad | 0.849 | 0.833 | 0.774 | 0.867 | 0.865 | 0.814 | 0.811 | 0.772 | 0.633 | 0.539 |  | 1.03 | 1.02 | 0.89 | 0.892 | 0.938 | 0.817 | 0.886 | 0.928 | 0.889
3 | LCLC-97TM1 | 0.221 | 0.179 | 0.159 | 0.196 | 0.202 | 0.24 | 0.262 | 0.252 | 0.265 | 0.21 | 0.938 | 1.1 | 1.04 | 0.879 | 0.187 | 0.237 |  | 0.224 | 0.234 | 0.993
4 | EKVX | 1.02 | 1.02 | 0.919 | 0.971 | 1.03 | 0.328 | 0.386 | 0.261 | 0.336 | 0.394 | 0.77 | 0.862 | 0.536 | 0.852 | 0.887 | 0.846 | 0.634 | 0.781 | 0.94 | 0.81
5 | NCI-H441 | 0.612 | 0.746 | 0.48 | 0.557 | 0.623 | 0.204 | 0.24 | 0.241 | 0.273 | 0.231 | 1.25 | 0.989 | 1.18 | 1.18 | 0.998 | 0.766 | 0.732 |  | 0.591 | 0.986
6 | HCC-827 | 0.902 | 0.936 | 0.925 | 0.955 | 0.922 | 0.28 | 0.362 |  | 0.36 | 0.309 | 1.05 | 1.05 | 1.1 | 0.988 | 0.935 | 1.01 | 0.759 | 1.07 | 0.96 | 
7 | NCI-H838 | 0.91 | 1.12 | 0.88 | 0.992 | 1.07 | 0.485 | 0.479 | 0.435 | 0.469 | 0.438 | 1.13 | 1.08 | 1.02 | 1.01 | 0.995 | 0.994 | 0.822 | 1.07 | 1.07 | 1.04
8 | EPLC-272H | 1.2 | 1.2 | 1.23 | 1.36 | 0.447 | 0.37 | 0.395 | 0.33 | 0.377 | 0.336 | 0.77 | 0.884 | 0.82 | 0.782 | 0.946 | 0.999 | 0.801 | 0.936 | 0.805 | 0.515
9 | A-427 | 1.1 | 1.15 | 1.09 | 0.954 | 1.17 | 0.569 | 0.589 | 0.57 | 0.621 | 0.596 | 1.09 | 1.28 | 0.967 | 0.786 | 1.08 | 1.01 | 0.902 | 1.07 | 1.04 | 0.89
10 | NCI-H727 | 0.306 | 0.319 | 0.253 | 0.239 | 0.324 | 0.595 | 0.976 | 0.881 | 0.865 | 0.907 | 0.675 | 1.06 | 0.818 | 0.889 | 0.669 | 0.631 | 0.536 | 0.588 | 0.577 | 1.08
11 | NCI-H1993 | 0.725 | 0.826 | 0.753 | 0.698 | 0.783 | 0.71 | 0.681 | 0.519 | 0.576 | 0.458 | 0.807 | 0.74 | 0.745 | 0.735 | 0.628 | 0.725 | 0.625 | 0.674 | 0.705 | 0.649
12 | LK-2 | 0.618 | 0.614 | 0.415 | 0.643 | 0.567 | 0.182 | 0.369 | 0.336 | 0.301 | 0.267 |  | 1.27 | 1.52 | 0.863 | 1.29 | 1.26 | 0.939 | 1.08 | 1.02 | 
13 | SW 1573 | 0.846 | 0.767 | 0.811 | 0.769 | 0.864 | 0.476 | 0.573 | 0.519 | 0.536 | 0.416 | 0.966 | 0.828 | 1.09 | 0.964 | 0.721 | 0.739 | 0.651 | 0.89 | 0.8 | 0.984
14 | NCI-H1915 | 1.08 | 1.12 | 1.08 | 1.08 | 1.1 | 0.262 | 0.264 | 0.253 | 0.248 | 0.256 | 1.17 | 1.14 | 1.07 | 1.13 | 1.04 | 1.1 | 0.989 | 1.06 | 1.08 | 1.08
15 | NCI-H661 | 0.53 | 0.559 | 0.629 | 0.539 | 0.581 | 0.6 | 0.608 | 0.563 | 0.632 | 0.69 | 0.985 | 1.04 | 1.02 | 1.09 | 0.48 | 0.621 | 0.408 | 0.614 | 0.703 | 1.01
16 | NCI-H520 | 0.997 | 1.04 | 1.02 | 0.984 | 0.968 | 0.525 | 0.602 | 0.519 | 0.547 | 0.504 | 0.756 | 0.756 | 0.804 | 0.889 | 0.941 | 0.784 | 0.778 | 0.981 | 0.837 | 0.778
